Source: patent US10039753B2, “Imidazo[4,5-c]quinoline and imidazo[4,5-c][1,5]naphthyridine derivatives as LRRK2 inhibitors” (Pfizer Inc., priority 2015, dated 2018)

What was measured:
[1] = tested on: kinase selectivity mini-panel; assay: Kinase selectivity (mini-panel), further assay run, Table 5A; assay type: biochemical; conditions: 1 mM ATP, 1 μM drug concentration; for percent inhibition of ABL: kinase ABL; for percent inhibition of AKT: kinase AKT; for percent inhibition of AURA: kinase AURA; for percent inhibition of BTK: kinase BTK; for percent inhibition of CDK2_CyclinA: kinase CDK2_CyclinA; for percent inhibition of CHK1: kinase CHK1; for percent inhibition of CHK2: kinase CHK2; for percent inhibition of CKIIa′: kinase CKIIa′; for percent inhibition of CKIa: kinase CKIa; for percent inhibition of CaMKIIa: kinase CaMKIIa; for percent inhibition of EGFR: kinase EGFR; for percent inhibition of ERK2: kinase ERK2; for percent inhibition of EphA2: kinase EphA2; for percent inhibition of FGFR1: kinase FGFR1; for percent inhibition of GSK3b: kinase GSK3b; for percent inhibition of HGFR: kinase HGFR; for percent inhibition of IRAK4: kinase IRAK4; for percent inhibition of IRK: kinase IRK; for percent inhibition of JAK3: kinase JAK3; for percent inhibition of KDR (VEGF): kinase KDR (VEGF); for percent inhibition of LCK: kinase LCK; for percent inhibition of MARK1: kinase MARK1; for percent inhibition of MK2: kinase MK2; for percent inhibition of MLCK_sk: kinase MLCK_sk; for percent inhibition of MST2: kinase MST2; for percent inhibition of MST4: kinase MST4; for percent inhibition of PAK4: kinase PAK4; for percent inhibition of PDK1: kinase PDK1; for percent inhibition of PIM2: kinase PIM2; for percent inhibition of PKACa: kinase PKACa; for percent inhibition of PRKCB2: kinase PRKCB2; for percent inhibition of ROCKI: kinase ROCKI; for percent inhibition of SGK: kinase SGK; for percent inhibition of SRC: kinase SRC; for percent inhibition of TAO2: kinase TAO2; for percent inhibition of TIE2: kinase TIE2; for percent inhibition of TRKA: kinase TRKA; for percent inhibition of ZC1 (HGK): kinase ZC1 (HGK); for percent inhibition of p38: kinase p38
Protocol: The compounds were run using a commercially available kinase selectivity assay which is available from CarnaBio USA, Inc. 209 West Central St., Suite 307, Natick, Mass. 01760 USA. The compounds of Examples 3, 4, 5 and 22 were run in the assay at a concentration of 1 μM using an ATP concentration of 1 mM.

[2] = molecular target: mutant G2019S LRRK2 (Homo sapiens, UniProt Q5S007, G2019S); assay: LRRK2 Assay, Format 1 (Lantha Screen), G2019S mutant
Protocol: LRRK2 kinase activity was measured using Lantha Screen technology from Invitrogen. GST-tagged truncated LRRK2 from Invitrogen (Cat # PV4874) was incubated with a fluorescein-labeled peptide substrate based upon ezrin/radixin/moesin (ERM), also known as LRRKtide (Invitrogen cat # PR8976A), in the presence of a dose response of compound. Upon completion, the assay was stopped and detected with a terbium labeled anti-phospho-ERM antibody (Invitrogen, cat # PR8975A). […] Aliquots (3.5 μL) of the 100% DMSO dose response were mixed with 46.5 μL water then 1 μL of this mixture was added to the 3 μL substrate mix in the 384-well plate. The kinase reaction was started with 3 μL of a working solution of LRRK2 enzyme at a concentration of 4 μg/mL. […] The reaction was allowed to progress at room temperature for two hours and then stopped with the addition of 7 μL of detection buffer (20 mM Tris pH 7.6, 0.01% NP-40, 0.02% NaN3, 6 mM EDTA with 2 nM terbium labeled anti-phospho-ERM).
All final concentrations of substrate ATP and enzyme were the same.

[3] = molecular target: T1, GST-tagged truncated LRRK2 (Homo sapiens, UniProt Q5S007); assay: LRRK2 Assay, Format 1 (Lantha Screen), WT; assay type: biochemical; conditions: Format 1, wild-type LRRK2; geometric mean of 2-4 determinations unless footnoted (a: ≥5 determinations; b: single determination; c: determined on trifluoroacetate salt)
T1 construct: GST-tagged truncated LRRK2 from Invitrogen (Cat # PV4874); GST; purchased Invitrogen PV4874
Outline: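 Kinase activity measured by TR-FRET: GST-tagged truncated LRRK2 (4 μg/mL working solution) reacted with fluorescein-labeled LRRKtide (ERM-based peptide) across a compound dose response for 2 h at room temperature. Reaction stopped with EDTA-containing detection buffer (20 mM Tris pH 7.6) holding 2 nM terbium anti-phospho-ERM antibody.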

mutant G2019S LRRK2, sequence (Q5S007 970-2527 G2019S limits assumed): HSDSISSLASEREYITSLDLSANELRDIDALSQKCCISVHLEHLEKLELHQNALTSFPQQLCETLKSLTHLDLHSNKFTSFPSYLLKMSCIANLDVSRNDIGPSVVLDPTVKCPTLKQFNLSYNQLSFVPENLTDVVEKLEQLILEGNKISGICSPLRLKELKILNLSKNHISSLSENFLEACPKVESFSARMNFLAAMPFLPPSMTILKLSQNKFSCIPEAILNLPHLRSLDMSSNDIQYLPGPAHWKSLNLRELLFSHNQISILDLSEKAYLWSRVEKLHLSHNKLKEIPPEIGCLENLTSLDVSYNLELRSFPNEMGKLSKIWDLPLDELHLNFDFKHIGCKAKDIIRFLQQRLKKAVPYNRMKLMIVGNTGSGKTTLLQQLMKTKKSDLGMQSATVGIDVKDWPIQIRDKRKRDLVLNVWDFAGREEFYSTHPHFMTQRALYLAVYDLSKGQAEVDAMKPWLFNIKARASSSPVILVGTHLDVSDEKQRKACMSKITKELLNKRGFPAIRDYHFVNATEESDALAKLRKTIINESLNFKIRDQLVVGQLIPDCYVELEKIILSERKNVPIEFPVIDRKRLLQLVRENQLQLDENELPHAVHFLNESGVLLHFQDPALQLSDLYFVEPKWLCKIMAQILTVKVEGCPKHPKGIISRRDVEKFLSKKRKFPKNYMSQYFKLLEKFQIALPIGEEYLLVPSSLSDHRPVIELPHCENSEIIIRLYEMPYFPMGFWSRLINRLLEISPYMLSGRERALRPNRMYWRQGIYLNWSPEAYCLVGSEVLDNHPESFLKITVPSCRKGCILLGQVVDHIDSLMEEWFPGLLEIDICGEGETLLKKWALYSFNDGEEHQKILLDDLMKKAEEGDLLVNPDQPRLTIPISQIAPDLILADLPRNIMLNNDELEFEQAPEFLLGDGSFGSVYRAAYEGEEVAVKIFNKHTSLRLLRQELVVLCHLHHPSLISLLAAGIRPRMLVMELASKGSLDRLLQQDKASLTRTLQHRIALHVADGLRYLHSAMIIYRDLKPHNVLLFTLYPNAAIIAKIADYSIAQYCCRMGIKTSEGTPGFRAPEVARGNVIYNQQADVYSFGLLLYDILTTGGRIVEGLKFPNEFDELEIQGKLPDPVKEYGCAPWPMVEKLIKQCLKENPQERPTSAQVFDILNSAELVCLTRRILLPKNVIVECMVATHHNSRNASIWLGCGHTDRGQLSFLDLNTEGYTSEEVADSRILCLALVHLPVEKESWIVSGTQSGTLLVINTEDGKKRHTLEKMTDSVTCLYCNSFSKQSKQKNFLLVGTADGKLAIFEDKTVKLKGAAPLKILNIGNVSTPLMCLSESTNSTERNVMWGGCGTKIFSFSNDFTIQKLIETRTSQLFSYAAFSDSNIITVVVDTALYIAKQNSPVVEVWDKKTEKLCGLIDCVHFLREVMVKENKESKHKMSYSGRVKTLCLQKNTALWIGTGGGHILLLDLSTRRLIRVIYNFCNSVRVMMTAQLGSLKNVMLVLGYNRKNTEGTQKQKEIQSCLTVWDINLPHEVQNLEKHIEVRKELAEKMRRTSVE
T1 sequence (Q5S007 970-2527 limits assumed): as the sequence (Q5S007 970-2527 G2019S limits assumed) above, with S1050G counted along it

Cc1cc(Cc2nc3cnc4ccc(Cl)cc4c3n2[C@@H]2CCO[C@H](C)C2)no1 [Example 4, 8-Chloro-2-[(5-methyl-1,2-oxazol-3-yl)methyl]-1-[(2R,4R)-2-methyltetrahydro-2H-pyran-4-yl]-1H-imidazo[4,5-c]quinoline]
percent inhibition of ABL [1]: −2.51%
percent inhibition of AKT [1]: 1.03%
percent inhibition of AURA [1]: 7.17%
percent inhibition of BTK [1]: 0.22%
percent inhibition of CDK2_CyclinA [1]: 8.08%
percent inhibition of CHK1 [1]: 8.15%
percent inhibition of CHK2 [1]: 2.72%
percent inhibition of CKIIa′ [1]: 4.36%
percent inhibition of CKIa [1]: 18.22%
percent inhibition of CaMKIIa [1]: 7.62%
percent inhibition of EGFR [1]: 3.07%
percent inhibition of ERK2 [1]: 4.54%
percent inhibition of EphA2 [1]: 0.85%
percent inhibition of FGFR1 [1]: 20.35%
percent inhibition of GSK3b [1]: 4.45%
percent inhibition of HGFR [1]: −5.99%
percent inhibition of IRAK4 [1]: 3.88%
percent inhibition of IRK [1]: 2.83%
percent inhibition of JAK3 [1]: −1.51%
percent inhibition of KDR (VEGF) [1]: 14.24%
percent inhibition of LCK [1]: 15.63%
percent inhibition of MARK1 [1]: 1.48%
percent inhibition of MK2 [1]: 3.04%
percent inhibition of MLCK_sk [1]: 3.07%
percent inhibition of MST2 [1]: 16.25%
percent inhibition of MST4 [1]: 1.29%
percent inhibition of PAK4 [1]: 3.85%
percent inhibition of PDK1 [1]: 4.87%
percent inhibition of PIM2 [1]: −0.54%
percent inhibition of PKACa [1]: −0.89%
percent inhibition of PRKCB2 [1]: 4.71%
percent inhibition of ROCKI [1]: 1.89%
percent inhibition of SGK [1]: 1.58%
percent inhibition of SRC [1]: 4.66%
percent inhibition of TAO2 [1]: 0.82%
percent inhibition of TIE2 [1]: 4.72%
percent inhibition of TRKA [1]: 11.84%
percent inhibition of ZC1 (HGK) [1]: −3.58%
percent inhibition of p38 [1]: 9.62%
IC50 [2]: 4.9 nM
IC50 [3]: 8.3 nM

Cc1nc(Cc2nc3cnc4ccc(Cl)cc4c3n2[C@@H]2CCO[C@H](C)C2)no1 [Example 5, 8-Chloro-2-[(5-methyl-1,2,4-oxadiazol-3-yl)methyl]-1-[(2R,4R)-2-methyltetrahydro-2H-pyran-4-yl]-1H-imidazo[4,5-c]quinoline]
percent inhibition of ABL [1]: 1.3%
percent inhibition of AKT [1]: −3.11%
percent inhibition of AURA [1]: −0.59%
percent inhibition of BTK [1]: −1.9%
percent inhibition of CDK2_CyclinA [1]: 3.76%
percent inhibition of CHK1 [1]: 4.68%
percent inhibition of CHK2 [1]: 2.05%
percent inhibition of CKIIa′ [1]: 5.19%
percent inhibition of CKIa [1]: 8.85%
percent inhibition of CaMKIIa [1]: 1.1%
percent inhibition of EGFR [1]: −0.51%
percent inhibition of ERK2 [1]: 2.62%
percent inhibition of EphA2 [1]: 0.13%
percent inhibition of FGFR1 [1]: 12.6%
percent inhibition of GSK3b [1]: 3.4%
percent inhibition of HGFR [1]: −7.71%
percent inhibition of IRAK4 [1]: 1.85%
percent inhibition of IRK [1]: 1.53%
percent inhibition of JAK3 [1]: −0.03%
percent inhibition of KDR (VEGF) [1]: 15.08%
percent inhibition of LCK [1]: 17.19%
percent inhibition of MARK1 [1]: 3.46%
percent inhibition of MK2 [1]: −3.62%
percent inhibition of MLCK_sk [1]: 3.8%
percent inhibition of MST2 [1]: 14.89%
percent inhibition of MST4 [1]: 8.04%
percent inhibition of PAK4 [1]: −0.05%
percent inhibition of PDK1 [1]: 0.39%
percent inhibition of PIM2 [1]: −3.78%
percent inhibition of PKACa [1]: −8.79%
percent inhibition of PRKCB2 [1]: 9.78%
percent inhibition of ROCKI [1]: 0.07%
percent inhibition of SGK [1]: −0.06%
percent inhibition of SRC [1]: 2.47%
percent inhibition of TAO2 [1]: 0.55%
percent inhibition of TIE2 [1]: 2.53%
percent inhibition of TRKA [1]: 12.31%
percent inhibition of ZC1 (HGK) [1]: −0.79%
percent inhibition of p38 [1]: 5.64%
IC50 [2]: 2.7 nM
IC50 [3]: 4.6 nM

Cc1cn(Cc2nc3cnc4ccc(Cl)cc4c3n2[C@@H]2CCO[C@H](C)C2)nn1 [Example 11, 8-Chloro-1-[(2R,4R)-2-methyltetrahydro-2H-pyran-4-yl]-2-[(4-methyl-1H-1,2,3-triazol-1-yl)methyl]-1H-imidazo[4,5-c]quinoline]
percent inhibition of ABL [1]: 5.06%
percent inhibition of AKT [1]: 2.25%
percent inhibition of AURA [1]: 9.46%
percent inhibition of BTK [1]: 1.63%
percent inhibition of CDK2_CyclinA [1]: 10.91%
percent inhibition of CHK1 [1]: 9.08%
percent inhibition of CHK2 [1]: 4.45%
percent inhibition of CKIIa′ [1]: 3.12%
percent inhibition of CKIa [1]: 10.68%
percent inhibition of CaMKIIa [1]: 3.76%
percent inhibition of EGFR [1]: 2.76%
percent inhibition of ERK2 [1]: 4.69%
percent inhibition of EphA2 [1]: 0.7%
percent inhibition of FGFR1 [1]: 21.95%
percent inhibition of GSK3b [1]: 3.91%
percent inhibition of HGFR [1]: −3.76%
percent inhibition of IRAK4 [1]: 4.95%
percent inhibition of IRK [1]: 0.67%
percent inhibition of JAK3 [1]: −0.46%
percent inhibition of KDR (VEGF) [1]: 29%
percent inhibition of LCK [1]: 9.31%
percent inhibition of MARK1 [1]: 1.52%
percent inhibition of MK2 [1]: −1.14%
percent inhibition of MLCK_sk [1]: 4.74%
percent inhibition of MST2 [1]: 23.23%
percent inhibition of MST4 [1]: 10.29%
percent inhibition of PAK4 [1]: 4.23%
percent inhibition of PDK1 [1]: 8.16%
percent inhibition of PIM2 [1]: 4.47%
percent inhibition of PKACa [1]: 5.23%
percent inhibition of PRKCB2 [1]: −0.76%
percent inhibition of ROCKI [1]: 6.94%
percent inhibition of SGK [1]: 4.89%
percent inhibition of SRC [1]: 1.86%
percent inhibition of TAO2 [1]: 5.98%
percent inhibition of TIE2 [1]: 5.85%
percent inhibition of TRKA [1]: 13.01%
percent inhibition of ZC1 (HGK) [1]: 2.87%
percent inhibition of p38 [1]: 7.19%
IC50 [2]: 2.6 nM
IC50 [3]: 3.4 nM
